One compound from article PMC10812672, “Short Antimicrobial Peptide Derived from the Venom Gland Transcriptome of Pamphobeteus verdolaga Increases Gentamicin Susceptibility of Multidrug-Resistant Klebsiella pneumoniae” (Antibiotics, 2023) can be followed below.

For test [1], the system named is multidrug-resistant (MDR) strain of K. pneumoniae, clinical isolate. Description: microbe, parasite or virus in culture. It is filed as cell-based, Klebsiella pneumoniae. How it is done: A multidrug-resistant (MDR) strain of K. pneumoniae was identified and isolated from a tertiary-level hospital in Medellin, Colombia, using the VITEK-2 system (bioMérieux, Marcy-l’Étoile, France). The MDR strain was evaluated against several antibiotics at concentrations of 1.56–100 μM. […] In contrast, the strain was susceptible to doxycycline (Supplementary Figure S7g) and chloramphenicol (Supplementary Figure S7h), with MICs of 50 μM and 100 µM, respectively (Table 3). […] All of P. verdolaga’s AMPs were evaluated against the clinical isolate at concentrations of 1.56–200 µM (Supplementary Figure S8). […] A growth inhibition kinetic assay was conducted. […] All of P. verdolaga’s peptides at 100 μM induced morphological changes in the MDR K. pneumoniae, indicating membrane interactions, even though no significant inhibition was observed (Supplementary Figure S9).
The evaluation of the antimicrobial activity of the peptides was conducted using the CLSI’s broth microdilution method for bacterial susceptibility testing. For the screening phase, peptides were evaluated at a single 30 μM concentration, in triplicate and in three independent assays, against the E. coli ATCC® 8739, E. coli ATCC® 25922, S. aureus ATCC® 6538, or S. aureus ATCC® 29213 reference USP and CLSI strains. For the determination of MIC, MBC, or IC50, peptides or antibiotics were evaluated in concentrations between 1.56–200 µM. These evaluations were conducted in triplicate and in three independent assays, against the E. coli ATCC® 25922, S. aureus ATCC® 29213, E. faecalis ATCC® 49532, P. aeruginosa ATCC® 9027, and K. pneumoniae ATCC® BAA-1705, or the clinically isolated MDR strain. In detail, 1 mL of a glycerol stock solution of the ATCC® or clinically isolated bacterial strain was added to 9 mL of Mueller-Hinton Broth and incubated for 18 h, 180 rpm and 37 °C (Incubator 1000, Heidolph Instruments, Schwabach, Germany). After the incubation, 1 mL of the previous solution was transferred to a new recipient containing 9 mL of fresh Mueller-Hinton broth and incubated for 4 h, 180 rpm and 37 °C (Incubator 1000, Heidolph Instruments, Schwabach, Germany). During the second incubation, the peptides or the antibiotics were dissolved in PBS pH 7.20 in concentrations between 19.53–2500 µM (MC5 Micro Balance, Sartorius AG, Göttingen, Germany). An amount of 10 µL of either peptide or antibiotic was dispensed in triplicate in 96-well flat bottom culture plates, along with 10 µL of PBS (Negative activity control), BTM-P1 (Positive activity control), or 10 µL of Mueller-Hinton broth (Blank); then, 110 µL of Mueller-Hinton broth was poured in all wells. Following this, the bacteria were suspended in Mueller-Hinton broth up to a concentration of approximately 1.50 × 10^8 CFU/mL, as measured by optical density at 600 nm between 0.06 to 0.11 (0.5 McFarland standard), in a Multiskan SkyHigh spectrophotometer (ThermoFisher Scientific, Waltham, MA, USA). Amounts of 5 µL of the 1.50 × 10^8 CFU/mL suspension were added to each well (except for the blank) for a final well concentration of approximately 6 × 10^6 CFU/mL. The plate was incubated for 24 h at 37 °C (BE 500, Memmert GmbH, Büchenbach, Germany) and optical density was measured at 600 nm in a Multiskan SkyHigh spectrophotometer (ThermoFisher Scientific, Waltham, MI, USA). Following the measurement of optical density, plates were visually inspected to determine the MIC. Subsequently, 100 µL of the concentration associated to the MIC and 100 µL of the next higher concentration were added to Petri dishes containing Mueller-Hinton Agar. The dishes were then incubated for 24 h at 37 °C (BE 500, Memmert GmbH, Büchenbach, Germany). After incubation, the Petri dishes were visually inspected, and the MBC was determined in the absence of growth. IC50 values were interpolated from regressions with correlation values above 0.70. […]

The test system of test [2] is MDR K. pneumoniae. Description: Isobologram analysis and FICI, PvAMP66 with gentamicin. It is filed as cell-based, Klebsiella pneumoniae. How it is done:
Given the intermediate resistance to gentamicin, an isobologram analysis was used as a proof-of-concept to evaluate the interaction between PvAMP66 and the antibiotic. The growth inhibition of the clinical isolate was measured using peptide concentrations of 0.10–100 µM, and gentamicin concentrations of 0.10–50 µM (Supplementary Figure S10). Combined IC50 values were calculated and plotted in a graph with a secant line representing the IC50 values for PvAMP66 and gentamicin when used alone (Figure 2a). […] The concentrations adjacent to the aforementioned data point were evaluated. […] Additionally, a Fractional Inhibitory Concentration Index (FICI) of 0.59 was obtained.
For the isobologram analysis concentrations, ranges of 1.56 µM to 200 µM of the peptide and 0.07 µM to 100 µM of the gentamicin were used. The experiments were conducted in triplicate and repeated in two independent assays. The IC50 for each combination was determined using either logarithmic or linear regression. Then, when achieving 50% growth inhibition, the concentrations of the peptide and gentamicin were recorded and used to create an isobologram graph with a ‘peptide concentration’ vs. ‘gentamicin concentration’ plot. […] The fractional inhibitory concentration index was calculated as follows: FICI=Combined MICAntibiotic/MICAntibiotic+Combined MICPeptide/MICPeptide

By IC50 is commonly meant the point on the concentration scale where inhibition reaches its midpoint. For `CNC(C)C1CCC(N)C(OC2C(N)CC(N)C(OC3OCC(C)(O)C(NC)C3O)C2O)O1` (stereo not drawn) [Gentamicin, gentamicin], the IC50 in test [1] (Klebsiella pneumoniae) was 33.4 µM; in test [2] (Klebsiella pneumoniae, with PvAMP66 9.85 µM, read-out: combined IC50 for gentamicin), 3.12 µM. In addition, the MIC turned out to be 9.31 µg/mL in test [1] (Klebsiella pneumoniae, MDR K. pneumoniae clinical isolate) and 50.00 µM in test [1] (MDR K. pneumoniae clinical isolate, peptides 1.56–200 µM, antibiotics 1.56–100 µM, 24 h 37 °C). For the same compound, the “Classification at 10^6 CFU/mL” value in test [1] (MDR K. pneumoniae clinical isolate, CLSI classification) was “Intermediate resistant”. Further, in test [2] (with 12.50 µM PvAMP66), the “combined MIC, gentamicin” value is on record as 4.70 µM.
